According to patent US20230167073A1 (Teijin Pharma Limited, priority 2020, published 2023):

target: T1, Human TRPC6 (Homo sapiens, UniProt Q9Y210); test: Evaluation of TRPC6 channel inhibitory activity (1), FLIPR Calcium 5 Assay Kit, OAG stimulation (Compound Nos. 1-1293); type: cell-based; conditions: not given
T1 construct: expressed in transfected cells
T1 sequence (Q9Y210 1-931): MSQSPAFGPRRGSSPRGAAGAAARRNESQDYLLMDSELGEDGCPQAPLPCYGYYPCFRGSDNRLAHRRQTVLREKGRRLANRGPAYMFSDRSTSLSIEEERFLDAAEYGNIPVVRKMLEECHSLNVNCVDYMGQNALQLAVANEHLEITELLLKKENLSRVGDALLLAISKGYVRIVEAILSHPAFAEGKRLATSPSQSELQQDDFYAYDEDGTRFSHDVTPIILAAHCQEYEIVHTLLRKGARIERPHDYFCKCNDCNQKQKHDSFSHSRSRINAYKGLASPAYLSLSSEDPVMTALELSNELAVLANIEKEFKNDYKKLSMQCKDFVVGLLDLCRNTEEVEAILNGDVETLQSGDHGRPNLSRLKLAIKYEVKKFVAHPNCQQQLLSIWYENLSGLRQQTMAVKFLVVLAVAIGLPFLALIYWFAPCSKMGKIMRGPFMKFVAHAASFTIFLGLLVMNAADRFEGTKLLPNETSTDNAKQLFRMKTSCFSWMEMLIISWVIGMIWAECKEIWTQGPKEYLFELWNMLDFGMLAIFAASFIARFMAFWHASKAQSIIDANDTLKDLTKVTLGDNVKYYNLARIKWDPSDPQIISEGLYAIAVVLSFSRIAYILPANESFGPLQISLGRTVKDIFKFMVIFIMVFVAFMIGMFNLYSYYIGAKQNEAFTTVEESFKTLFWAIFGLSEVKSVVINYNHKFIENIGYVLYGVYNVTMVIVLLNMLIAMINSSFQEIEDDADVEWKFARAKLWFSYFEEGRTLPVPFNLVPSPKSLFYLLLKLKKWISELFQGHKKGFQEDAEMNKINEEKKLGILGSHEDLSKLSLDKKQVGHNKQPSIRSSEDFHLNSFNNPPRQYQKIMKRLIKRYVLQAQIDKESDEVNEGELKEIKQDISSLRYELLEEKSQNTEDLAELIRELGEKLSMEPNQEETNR
Method in brief: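 Calcium influx read by FLIPR fluorescence in cells stably expressing human TRPC6, dye-loaded 30 min. Compounds preincubated 20 min, then OAG stimulation at 30 μM final. Inhibition fitted by four-parameter logistic regression to give pIC50, reported as +/++/+++ categories.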

Q: With `Cc1nc(Oc2cc(C#N)ccc2-c2ccc(CC3(N)COC3)cn2)cc(N2C3CCC2CC3)n1` [Compound No. 670, 4-[5-[(3-Aminooxetan-3-yl)methyl]pyridin-2-yl]-3-[6-(7-azabicyclo[2.2.1]heptan-7-yl)-2-methylpyrimidin-4-yl]oxybenzonitrile] as the compound, how does the IC50 read?
A: Its IC50 is under 10 nM.

same assay, conditions: Human TRPC6 stably-expressing cells, OAG 30 μM, FLIPR Calcium 5 Assay Kit; read-out: Inhibitory activity (pIC50 class) (converted)

Q: Which IC50 does the source give for `Cc1nc(Oc2cc(C#N)ccc2-n2cc([C@@H](O)CN)cn2)cc(OC2CCC2)n1` [Compound 269, 4-[4-[(1R)-2-amino-1-hydroxyethyl]pyrazol-1-yl]-3-(6-cyclobutyloxy-2-methylpyrimidin-4-yl)oxybenzonitrile] here?
A: Its IC50 is 10 to 1000 nM.

Q: `Cc1nc(OCC2CCC2)cc(Oc2cc(C#N)ccc2-n2cc([C@@H](O)CN)cn2)n1` [Compound 270, 4-[4-[(1R)-2-amino-1-hydroxyethyl]pyrazol-1-yl]-3-[6-(cyclobutylmethoxy)-2-methylpyrimidin-4-yl]oxybenzonitrile] was tested. Which IC50 did it give?
A: Its IC50 is 10 to 1000 nM.

Q: With `Cc1nc(OCC2CC2(F)F)cc(Oc2cc(C#N)ccc2-n2cc([C@@H](O)CN)cn2)n1` (stereo partly drawn) [Compound 271, 4-[4-[(1R)-2-amino-1-hydroxyethyl]pyrazol-1-yl]-3-[6-[(2,2-difluorocyclopropyl)methoxy]-2-methylpyrimidin-4-yl]oxybenzonitrile] as the compound, how does the IC50 read?
A: Its IC50 is 10 to 1000 nM.

Q: `Cn1nc(C2CCC2)cc1Oc1cc(C#N)ccc1-c1ncc(CCN)cn1` [Compound 272, 4-[5-(2-aminoethyl)pyrimidin-2-yl]-3-(5-cyclobutyl-2-methylpyrazol-3-yl)oxybenzonitrile] was tested. Which IC50 did it give?
A: Its IC50 is under 10 nM.

Q: `Cn1nc(C2CCOCC2)cc1Oc1cc(C#N)ccc1-c1ncc(CCN)cn1` [Compound 273, 4-[5-(2-aminoethyl)pyrimidin-2-yl]-3-[2-methyl-5-(oxan-4-yl)pyrazol-3-yl]oxybenzonitrile] was tested. Which IC50 did it give?
A: The IC50 was under 10 nM.

Q: `Cn1nc(-c2ccccc2)cc1Oc1cc(C#N)ccc1-c1ncc(CCN)cn1` [Compound 274, 4-[5-(2-aminoethyl)pyrimidin-2-yl]-3-(2-methyl-5-phenylpyrazol-3-yl)oxybenzonitrile] was tested. Which IC50 did it give?
A: The IC50 was under 10 nM.

Q: For `Cc1nc(Oc2cc(C#N)ccc2-c2ncc(CCN)cn2)cc(-c2ccccc2)n1` [Compound 275, 4-[5-(2-aminoethyl)pyrimidin-2-yl]-3-(2-methyl-6-phenylpyrimidin-4-yl)oxybenzonitrile], which IC50 is on record?
A: The IC50 was under 10 nM.

Q: Which IC50 does the source give for `Cn1nc(C2CCC2)cc1Oc1cc(C#N)ccc1-c1ccc(C(O)CN)cn1` (stereo not shown) [Compound 276, 4-[5-(2-amino-1-hydroxyethyl)pyridin-2-yl]-3-(5-cyclobutyl-2-methylpyrazol-3-yl)oxybenzonitrile] here?
A: Its IC50 is under 10 nM.

Q: With `N#Cc1ccc(-c2ncc(CCN)cn2)c(Oc2cnnc(-c3ccccc3)c2)c1` [Compound 277, 4-[5-(2-aminoethyl)pyrimidin-2-yl]-3-(6-phenylpyridazin-4-yl)oxybenzonitrile] as the compound, how does the IC50 read?
A: Its IC50 is under 10 nM.

Q: `Cn1nc(C2CCC2)cc1Oc1cc(C#N)ccc1-c1ncc(C(O)CN)cn1` (stereo not shown) [Compound 278, 4-[5-(2-amino-1-hydroxyethyl)pyrimidin-2-yl]-3-(5-cyclobutyl-2-methylpyrazol-3-yl)oxybenzonitrile] was tested. Which IC50 did it give?
A: The IC50 was under 10 nM.

Q: `Cc1nc(Oc2cc(C#N)ccc2-n2cc([C@@H](O)CNCC#N)cn2)cc(-c2ccccc2)n1` [Compound 279, 4-[4-[(1R)-2-(cyanomethylamino)-1-hydroxyethyl]pyrazol-1-yl]-3-(2-methyl-6-phenylpyrimidin-4-yl)oxybenzonitrile] was tested. Which IC50 did it give?
A: The IC50 was over 1000 nM.

Q: Which IC50 does the source give for `Cn1nc(C2CCC2)cc1Oc1cc(C#N)ccc1-c1ccc(C(O)CNCC#N)cn1` (stereo not shown) [Compound 280, 4-[5-[2-(cyanomethylamino)-1-hydroxyethyl]pyridin-2-yl]-3-(5-cyclobutyl-2-methylpyrazol-3-yl)oxybenzonitrile] here?
A: The IC50 was 10 to 1000 nM.

Q: With `Cn1nc(C2CCC2)cc1Oc1cc(C#N)ccc1-c1ncc(C(O)CNCC#N)cn1` (stereo not shown) [Compound 281, 4-[5-[2-(cyanomethylamino)-1-hydroxyethyl]pyrimidin-2-yl]-3-(5-cyclobutyl-2-methylpyrazol-3-yl)oxybenzonitrile] as the compound, how does the IC50 read?
A: The IC50 was over 1000 nM.

Q: How did the IC50 turn out when `N#Cc1ccc(-n2cc(CCN)cn2)c(Oc2cnnc(N3CCOCC3)c2)c1` [Compound 282, 4-[4-(2-aminoethyl)pyrazol-1-yl]-3-(6-morpholin-4-ylpyridazin-4-yl)oxybenzonitrile] was run?
A: The IC50 was 10 to 1000 nM.

Q: For `N#Cc1ccc(-n2cc(CCN)cn2)c(Oc2cnnc(N3CCCCC3)c2)c1` [Compound 283, 4-[4-(2-aminoethyl)pyrazol-1-yl]-3-(6-piperidin-1-ylpyridazin-4-yl)oxybenzonitrile], which IC50 is on record?
A: The IC50 was 10 to 1000 nM.

Q: For `N#Cc1ccc(-n2cc(CCN)cn2)c(Oc2cnnc(N3CCCC3)c2)c1` [Compound 284, 4-[4-(2-Aminoethyl)pyrazol-1-yl]-3-(6-pyrrolidin-1-ylpyridazin-4-yl)oxybenzonitrile], which IC50 is on record?
A: Its IC50 is 10 to 1000 nM.

Q: How did the IC50 turn out when `Cn1nc(-c2ccccn2)cc1Oc1cc(C#N)ccc1-c1ncc(CCN)cn1` [Compound 285, 4-[5-(2-aminoethyl)pyrimidin-2-yl]-3-(2-methyl-5-pyridin-2-ylpyrazol-3-yl)oxybenzonitrile] was run?
A: Its IC50 is under 10 nM.

Q: Which IC50 does the source give for `Cn1nc(C2CC2)cc1Oc1cc(C#N)ccc1-c1ccc(CCNCC#N)cn1` [Compound 286, 4-[5-[2-(cyanomethylamino)ethyl]pyridin-2-yl]-3-(5-cyclopropyl-2-methylpyrazol-3-yl)oxybenzonitrile] here?
A: The IC50 was 10 to 1000 nM.

Q: `Cn1nc(C2CCC2)cc1Oc1cc(C#N)ccc1-c1cnc(C(O)CN)cn1` (stereo not shown) [Compound 287, 4-[5-(2-amino-1-hydroxyethyl)pyrazin-2-yl]-3-(5-cyclobutyl-2-methylpyrazol-3-yl)oxybenzonitrile] was tested. Which IC50 did it give?
A: The IC50 was under 10 nM.

Q: `CCc1cc(Oc2cc(C#N)ccc2-c2ccc(CCN)cn2)n(C)n1` [Compound 288, 4-[5-(2-aminoethyl)pyridin-2-yl]-3-(5-ethyl-2-methylpyrazol-3-yl)oxybenzonitrile] was tested. Which IC50 did it give?
A: The IC50 was under 10 nM.

Q: For `Cn1nc(-c2ccccc2)cc1Oc1cc(C#N)ccc1-c1ccc(CN)cn1` [Compound 289, 4-[5-(aminomethyl)pyridin-2-yl]-3-(2-methyl-5-phenylpyrazol-3-yl)oxybenzonitrile], which IC50 is on record?
A: Its IC50 is under 10 nM.

Q: With `Cn1nc(-c2ccccc2)cc1Oc1cc(C#N)ccc1-c1cnc(CN)cn1` [Compound 290, 4-[5-(aminomethyl)pyrazin-2-yl]-3-(2-methyl-5-phenylpyrazol-3-yl)oxybenzonitrile] as the compound, how does the IC50 read?
A: Its IC50 is 10 to 1000 nM.

Q: How did the IC50 turn out when `Cn1nc(-c2ccccc2)cc1Oc1cc(C#N)ccc1-c1cc2c(cn1)CNCC2` [Compound 291, 3-(2-methyl-5-phenylpyrazol-3-yl)oxy-4-(5,6,7,8-tetrahydro-2,7-naphthylidin-3-yl)benzonitrile] was run?
A: Its IC50 is over 1000 nM.

Q: For `Cn1nc(-c2ccccc2)cc1Oc1cc(C#N)ccc1-c1ncc2c(n1)CCNC2` [Compound 292, 3-(2-methyl-5-phenylpyrazol-3-yl)oxy-4-(5,6,7,8-tetrahydropyrido[4,3-d]pyrimidin-2-yl)benzonitrile], which IC50 is on record?
A: The IC50 was 10 to 1000 nM.

Q: For `CCc1cc(Oc2cc(C#N)ccc2-c2ncc(CCN)cn2)n(C)n1` [Compound 293, 4-[5-(2-aminoethyl)pyrimidin-2-yl]-3-(5-ethyl-2-methylpyrazol-3-yl)oxybenzonitrile], which IC50 is on record?
A: The IC50 was under 10 nM.

Q: Which IC50 does the source give for `Cn1nc(C2CCC2)cc1Oc1cc(C#N)ccc1-c1ccc(C(F)(F)CN)cn1` [Compound 294, 4-[5-(2-amino-1,1-difluoroethyl)pyridin-2-yl]-3-(5-cyclobutyl-2-methylpyrazol-3-yl)oxybenzonitrile] here?
A: Its IC50 is under 10 nM.

Q: How did the IC50 turn out when `Cc1nc(Oc2cc(C#N)ccc2-c2ncc(CCN)cn2)cc(-c2ccccc2C#N)n1` [Compound 295, 4-[5-(2-aminoethyl)pyrimidin-2-yl]-3-[6-(2-cyanophenyl)-2-methylpyrimidin-4-yl]oxybenzonitrile] was run?
A: Its IC50 is under 10 nM.

Q: How did the IC50 turn out when `Cn1nc(C2CC2)cc1Oc1cc(C#N)ccc1-c1ccc(C(N)C(=O)N2CCOCC2)cn1` (stereo not shown) [Compound No. 487, 4-[5-(1-Amino-2-morpholin-4-yl-2-oxoethyl)pyridin-2-yl]-3-(5-cyclopropyl-2-methylpyrazol-3-yl)oxybenzonitrile] was run?
A: The IC50 was over 1000 nM.

Q: How did the IC50 turn out when `N#Cc1ccc(-c2ccc(CCN)cn2)c(Oc2nnc(C(F)(F)F)s2)c1` [Compound No. 712, 4-[5-(2-Aminoethyl)pyridin-2-yl]-3-[[5-(trifluoromethyl)-1,3,4-thiadiazol-2-yl]oxy]benzonitrile] was run?
A: The IC50 was 10 to 1000 nM.

Q: `Cn1nc(C(F)(F)F)cc1Oc1cc(C#N)ccc1-c1ncc(CN)cn1` [Compound No. 811, 4-[5-(Aminomethyl)pyrimidin-2-yl]-3-[2-methyl-5-(trifluoromethyl)pyrazol-3-yl]oxybenzonitrile] was tested. Which IC50 did it give?
A: Its IC50 is under 10 nM.
